Our source for the IC50 values is patent US10150740B2, “6,7-dihydropyrido[2,1-A]phthalazin-2-ones for the treatment and prophylaxis of hepatitis B virus infection” (priority 2015, dated 2018).

Where a name gives a salt, the structure may show the parent alone.

The subject of this experiment is HBsAg. The experiment is described as follows: cells. Conditions: Hepatitis B virus, HepG2.2.15, read-out: IC50 (HBsAg secretion).
Description: HepG2.2.15 cells (Acs et al. Proc Natl Acad Sci USA, 84, (1987), 4641-4), a constitutively HBV-expressing cell line were cultured in DMEM+Glutamax-I medium (Invitrogen, Carlsbad, Calif., USA), supplemented with 10% fetal bovine serum (Invitrogen) and G418 (Invitrogen) at a final concentration of 200 mg/L and maintained in 5% CO2 at 37° C.
HepG2.2.15 cells were seeded in duplicate into white, 96-well plates at 1.5×10^4 cells/well. The cells were treated with a three-fold serial dilution series of the compounds in DMSO. The final DMSO concentration in all wells was 1% and DMSO was used as no drug control.
The HBsAg chemiluminescence immunoassay (CLIA) kit (Autobio Diagnostics Co., Zhengzhou, China, Catalog number: CL0310-2) was used to measure the levels of secreted HBV antigens semi-quantitatively. For the detection 50 μL/well culture supernatant was used and HBsAg was quantified using HBsAg chemiluminescence immunoassay (CLIA) kit (Autobio Diagnostics Co., Zhengzhou, China, Catalog number: CL0310-2), 50 μL of the supernatant was transferred to the CLIA assay plate and 50 μL of enzyme conjugate reagent was added into each well. The plates were sealed and gently agitated for 1 hour at room temperature. The supernatant-enzyme-mixture was discarded and wells were washed 6 times with 300 μL of PBS. The residual liquid was removed by plating the CLIA plate right side down on absorbent tissue paper. 25 μL of substrates A and B were added to each well. Luminance was measured using a luminometer (Mithras LB 940 Multimode Microplate Reader) after 10 minutes incubation. Dose-response curves were generated and the IC50 value was extrapolated by using the E-WorkBook Suite (ID Business Solutions Ltd., Guildford, UK). The IC50 was defined as the compound concentration (or conditioned media log dilution) at which HBsAg secretion was reduced by 50% compared to the no drug control.
Take `COc1cc2c(cc1OC)-c1cc(=O)c(C(=O)O)cn1NC2` [Example 1, 9,10-Dimethoxy-2-oxo-6,7-dihydropyrido[2,1-a]phthalazine-3-carboxylic acid]: the IC50 amounted to 18700 nM.

Consider `COc1cc2c(cc1OC)-c1cc(=O)c(C(=O)O)cn1N(C)C2` [Example 2, 9,10-Dimethoxy-6-methyl-2-oxo-7H-pyrido[2,1-a]phthalazine-3-carboxylic acid], for which the IC50 was determined as 2530 nM.

Turning to `C=CCN1Cc2cc(OC)c(OC)cc2-c2cc(=O)c(C(=O)O)cn21` [Example 3, 6-Allyl-9,10-dimethoxy-2-oxo-7H-pyrido[2,1-a]phthalazine-3-carboxylic acid], the IC50 worked out at 740 nM.

Regarding `COc1cc2c(cc1OC)-c1cc(=O)c(C(=O)O)cn1N(C(C)C)C2` [Example 4, 6-Isopropyl-9,10-dimethoxy-2-oxo-7H-pyrido[2,1-a]phthalazine-3-carboxylic acid], the IC50 was 26100 nM.

Regarding `COc1cc2c(cc1OC)-c1cc(=O)c(C(=O)O)cn1N(CC(C)C)C2` [Example 5, 6-Isobutyl-9,10-dimethoxy-2-oxo-7H-pyrido[2,1-a]phthalazine-3-carboxylic acid], the IC50 turned out to be 248 nM.

With `COCCCOc1cc2c(cc1OC)-c1cc(=O)c(C(=O)O)cn1N(CC(C)C)C2` [Example 6, 6-Isobutyl-10-methoxy-9-(3-methoxypropoxy)-2-oxo-7H-pyrido[2,1-a]phthalazine-3-carboxylic acid], the IC50 amounted to 53 nM.

For `COc1cc2c(cc1OCC(F)(F)F)CN(CC(C)C)n1cc(C(=O)O)c(=O)cc1-2` [Example 7, 6-Isobutyl-10-methoxy-2-oxo-9-(2,2,2-trifluoroethoxy)-7H-pyrido[2,1-a]phthalazine-3-carboxylic acid], the IC50 turned out to be 172 nM.

In the case of `COc1cc2c(cc1OCC1CCOCC1)CN(CC(C)C)n1cc(C(=O)O)c(=O)cc1-2` [Example 8, 6-Isobutyl-10-methoxy-2-oxo-9-(tetrahydropyran-4-ylmethoxy)-7H-pyrido[2,1-a]phthalazine-3-carboxylic acid], the half-inhibitory concentration (IC50) was 44 nM.

With `COc1cc2c(cc1OCCCS(C)(=O)=O)CN(CC(C)C)n1cc(C(=O)O)c(=O)cc1-2` [Example 9, 6-Isobutyl-10-methoxy-9-(3-methylsulfonylpropoxy)-2-oxo-7H-pyrido[2,1-a]phthalazine-3-carboxylic acid], the IC50 amounted to 624 nM.

Regarding `COc1cc2c(cc1OCCN1CCOCC1)CN(CC(C)C)n1cc(C(=O)O)c(=O)cc1-2` [Example 10, 6-Isobutyl-10-methoxy-9-(2-morpholinoethoxy)-2-oxo-7H-pyrido[2,1-a]phthalazine-3-carboxylic acid], the IC50 was found to be 225 nM.

For the compound `COc1cc2c(cc1OCC(C)(C)CO)CN(CC(C)C)n1cc(C(=O)O)c(=O)cc1-2` [Example 11, 9-(3-Hydroxy-2,2-dimethyl-propoxy)-6-isobutyl-10-methoxy-2-oxo-7H-pyrido[2,1-a]phthalazine-3-carboxylic acid], the IC50 was determined as 39 nM.

Take `COc1cc2c(cc1OCCCCC(=O)O)CN(CC(C)C)n1cc(C(=O)O)c(=O)cc1-2` [Example 12, 9-(4-Carboxybutoxy)-6-isobutyl-10-methoxy-2-oxo-7H-pyrido[2,1-a]phthalazine-3-carboxylic acid]: the IC50 was 9430 nM.

Regarding `COc1cc2c(cc1OCCCC#N)CN(CC(C)C)n1cc(C(=O)O)c(=O)cc1-2` [Example 13, 9-(3-Cyanopropoxy)-6-isobutyl-10-methoxy-2-oxo-7H-pyrido[2,1-a]phthalazine-3-carboxylic acid], the IC50 was 110 nM.

In the case of `COc1cc2c(cc1OCCCCCNC(=O)OC(C)(C)C)CN(CC(C)C)n1cc(C(=O)O)c(=O)cc1-2` [Example 14, 9-[5-(Tert-butoxycarbonylamino)pentoxy]-6-isobutyl-10-methoxy-2-oxo-7H-pyrido[2,1-a]phthalazine-3-carboxylic acid], the IC50 turned out to be 47 nM.

Consider `COc1cc2c(cc1OCCCCCN)CN(CC(C)C)n1cc(C(=O)O)c(=O)cc1-2` [Example 15, 9-(5-Aminopentoxy)-6-isobutyl-10-methoxy-2-oxo-7H-pyrido[2,1-a]phthalazine-3-carboxylic acid hydrochloride], for which the IC50 was determined as 500 nM.
